The subject of assay [1] is HCV replicon (strain 1b) in HUH-7 cells. Briefly: HCV replicon FRET assay. Type of assay: cell-based. Conditions: Hepatitis C virus. The source says: An HCV replicon whole cell system was established as described by Lohmann V, Korner F, Koch J, Herian U, Theilmann L, Bartenschlager R., Science 285(5424): 110-3 (1999). This system enabled us to evaluate the effects of our HCV Protease compounds on HCV RNA replication. Briefly, using the HCV strain 1b sequence described in the Lohmann paper (Assession number: AJ238799), an HCV cDNA was synthesized by Operon Technologies, Inc. (Alameda, Calif.), and the full-length replicon was then assembled in plasmid pGem9zf(+) (Promega, Madison, Wis.) using standard molecular biology techniques. The replicon consists of (i) the HCV 5′ UTR fused to the first 12 amino acids of the capsid protein, (ii) the neomycin phosphotransferase gene (neo), (iii) the IRES from encephalomyocarditis virus (EMCV), and (iv) HCV NS3 to NS5B genes and the HCV 3′ UTR. Plasmid DNAs were linearized with ScaI and RNA transcripts were synthesized in vitro using the T7 MegaScript transcription kit (Ambion, Austin, Tex.) according to manufacturer's directions. In vitro transcripts of the cDNA were transfected into the human hepatoma cell line, HUH-7. […] Resulting cell lines were characterized for positive and negative strand RNA production and protein production over time.
The HCV replicon FRET assay was developed to monitor the inhibitory effects of compounds described in the disclosure on HCV viral replication. HUH-7 cells, constitutively expressing the HCV replicon, were grown in Dulbecco's Modified Eagle Media (DMEM) (Gibco-BRL) containing 10% Fetal calf serum (FCS) (Sigma) and 1 mg/ml G418 (Gibco-BRL). Cells were seeded the night before (1.5×10^4 cells/well) in 96-well tissue-culture sterile plates. Compound and no compound controls were prepared in DMEM containing 4% FCS, 1:100 Penicillin/Streptomysin (Gibco-BRL), 1:100 L-glutamine and 5% DMSO in the dilution plate (0.5% DMSO final concentration in the assay). Compound/DMSO mixes were added to the cells and incubated for 4 days at 37° C. After 4 days, cells were first assessed for cytotoxicity using alamar Blue (Trek Diagnotstic Systems) for a CC50 reading. The toxicity of compound (CC50) was determined by adding 1/10th volume of alamar Blue to the media incubating the cells. After 4 h, the fluorescence signal from each well was read, with an excitation wavelength at 530 nm and an emission wavelength of 580 nm, using the Cytofluor Series 4000 (Perspective Biosystems). Plates were then rinsed thoroughly with Phosphate-Buffered Saline (PBS) (3 times 150 μl). The cells were lysed with 25 μl of a lysis assay reagent containing an HCV protease substrate (5× cell Luciferase cell culture lysis reagent (Promega #E153A) diluted to 1× with distilled water, NaCl added to 150 mM final, the FRET peptide substrate (as described for the enzyme assay above) diluted to 10 μM final from a 2 mM stock in 100% DMSO. The plate was then placed into the Cytofluor 4000 instrument which had been set to 340 nm excitation/490 nm emission, automatic mode for 21 cycles and the plate read in a kinetic mode. EC50 determinations were carried out as described for the IC50 determinations.
In general terms: A replicon is a self-replicating genome or part of one, used to study replication in cells.

Assay [2] concerns the target T1, HCV NS3/4A protease complex, BMS strain (genotype 1a) (UniProt P27958, species not given/STRAIN_BMS).
T1 construct: "DNA encoding the recombinant HCV NS3/4A protease complex (amino acids 1027 to 1711) for these strains" (said of H77 and J4L6S, not expressly of BMS); given for the H77/J4L6S constructs only
In words: FRET peptide assay to monitor HCV NS3/4A proteolytic activity (BMS strain). Type of assay: biochemical. The conditions noted are these: NS3/4A BMS strain, read-out: HCV Protease (IC50). The source says:
HCV NS3 protease complexes, derived from the BMS strain, H77 strain or J4L6S strain, were generated, as described below. These purified recombinant proteins were generated for use in a homogeneous assay (see below) to provide an indication of how effective compounds of the present disclosure would be in inhibiting HCV NS3 proteolytic activity.
Serum from an HCV-infected patient was obtained from Dr. T. Wright, San Francisco Hospital. An engineered full-length cDNA (compliment deoxyribonucleic acid) template of the HCV genome (BMS strain) was constructed from DNA fragments obtained by reverse transcription-PCR(RT-PCR) of serum RNA (ribonucleic acid) and using primers selected on the basis of homology between other genotype la strains. From the determination of the entire genome sequence, a genotype la was assigned to the HCV isolate according to the classification of Simmonds et al. (See P Simmonds, K A Rose, S Graham, S W Chan, F McOmish, B C Dow, E A Follett, P L Yap and H Marsden, J. Clin. Microbiol., 31(6), 1493-1503 (1993)). […] The infectious clones, H77 (1a genotype) and J4L6S (1b genotype) were obtained from R. Purcell (NIH) and the sequences are published in Genbank (AAB67036, see Yanagi, M., Purcell, R. H., Emerson, S. U. and Bukh, J. Proc. Natl. Acad. Sci. U.S.A. 94(16), 8738-8743 (1997); AF054247, see Yanagi, M., St Claire, M., Shapiro, M., Emerson, S. U., Purcell, R. H. and Bukh, J, Virology 244 (1), 161-172. (1998)).
The H77 and J4L6S strains were used for production of recombinant NS3/4A protease complexes. DNA encoding the recombinant HCV NS3/4A protease complex (amino acids 1027 to 1711) for these strains were manipulated as described by P. Gallinari et al. (see Gallinari P, Paolini C, Brennan D, Nardi C, Steinkuhler C, De Francesco R. Biochemistry. 38(17):5620-32, (1999)). Briefly, a three-lysine solubilizing tail was added at the 3′-end of the NS4A coding region. The cysteine in the P1 position of the NS4A-NS4B cleavage site (amino acid 1711) was changed to a glycine to avoid the proteolytic cleavage of the lysine tag. Furthermore, a cysteine to serine mutation was introduced by PCR at amino acid position 1454 to prevent the autolytic cleavage in the NS3 helicase domain. The variant DNA fragment was cloned in the pET21b bacterial expression vector (Novagen) and the NS3/4A complex was expressed in Escherichia. coli strain BL21 (DE3) (Invitrogen) following the protocol described by P. Gallinari et al. (see Gallinari P, Brennan D, Nardi C, Brunetti M, Tomei L, Steinkuhler C, De Francesco R., J. Virol. 72(8):6758-69 (1998)) with modifications. Briefly, the NS3/4A protease complex expression was induced with 0.5 millimolar (mM) Isopropyl β-D-1-thiogalactopyranoside (IPTG) for 22 hours (h) at 20° C. A typical fermentation (1 Liter (L)) yielded approximately 10 grams (g) of wet cell paste. The cells were resuspended in lysis buffer (10 mL/g) consisting of 25 mM N-(2-Hydroxyethyl)piperazine-N′-(2-Ethane Sulfonic acid) (HEPES), pH 7.5, 20% glycerol, 500 mM Sodium Chloride (NaCl), 0.5% Triton X-100, 1 microgram/milliliter (“μg/mL”) lysozyme, 5 mM Magnesium Chloride (MgCl2), 1 μg/ml DnaseI, 5 mM β-Mercaptoethanol (βME), Protease inhibitor-Ethylenediamine Tetraacetic acid (EDTA) free (Roche), homogenized and incubated for 20 minutes (min) at 4° C. The homogenate was sonicated and clarified by ultra-centrifugation at 235000 g for 1 hour (h) at 4° C. Imidazole was added to the supernatant to a final concentration of 15 mM and the pH adjusted to 8.0. The crude protein extract was loaded on a Nickel-Nitrilotriacetic acid (Ni-NTA) column pre-equilibrated with buffer B (25 mM HEPES, pH 8.0, 20% glycerol, 500 mM NaCl, 0.5% Triton X-100, 15 mM imidazole, 5 mM βME). The sample was loaded at a flow rate of 1 mL/min. The column was washed with 15 column volumes of buffer C (same as buffer B except with 0.2% Triton X-100). The protein was eluted with 5 column volumes of buffer D (same as buffer C except with 200 mM Imidazole). […]

[3] abbreviates: Huh-7, read-out: HCV Pro Replicon (EC50).
Where [4] appears, read: activity range symbols of Table 2.

SMILES strings stand for the structures. Like-named read-outs stand apart in the source and are kept apart here. Where only a bound is given, the exact number is not on record here.

T1 sequence (P27958 1027-1657, stated change not applied, one chain of several): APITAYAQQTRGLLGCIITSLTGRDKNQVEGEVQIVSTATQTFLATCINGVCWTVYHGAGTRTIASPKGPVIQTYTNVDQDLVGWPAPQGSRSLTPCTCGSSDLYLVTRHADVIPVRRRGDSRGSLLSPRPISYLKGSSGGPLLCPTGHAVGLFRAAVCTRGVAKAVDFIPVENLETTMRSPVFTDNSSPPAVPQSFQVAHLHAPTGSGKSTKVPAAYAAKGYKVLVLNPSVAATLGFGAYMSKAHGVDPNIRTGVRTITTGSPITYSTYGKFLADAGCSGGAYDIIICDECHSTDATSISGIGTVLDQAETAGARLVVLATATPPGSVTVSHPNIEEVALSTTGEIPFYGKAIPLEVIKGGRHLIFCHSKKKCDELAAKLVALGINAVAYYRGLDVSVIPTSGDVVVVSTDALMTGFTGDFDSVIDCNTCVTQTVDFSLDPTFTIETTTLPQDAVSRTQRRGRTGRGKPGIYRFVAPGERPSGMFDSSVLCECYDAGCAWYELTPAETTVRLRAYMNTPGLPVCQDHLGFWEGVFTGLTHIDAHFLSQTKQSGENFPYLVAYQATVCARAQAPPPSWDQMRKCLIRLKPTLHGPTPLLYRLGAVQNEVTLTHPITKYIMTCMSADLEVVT

Usually EC50 stands for the concentration needed to bring the measured effect to its halfway point. Broadly, the IC50 is the concentration that gives 50% inhibition. `C=C[C@@H]1C[C@]1(NC(=O)[C@@H]1C[C@@](OC)(c2ccc(-c3ccccc3)cc2)CN1C(=O)[C@H](CC(C)C)NC(=O)OC(C)(C)C)C(=O)NS(=O)(=O)C1CC1` [Cmpd 203, {(S)-1-[(2S,4R)-4-Biphenyl-4-yl-2-((S)-(1R,2S)-1-cyclopropanesulfonylaminocarbonyl-2-vinyl-cyclopropylcarbamoyl)-4-methoxy-pyrrolidine-1-carbonyl]-3-methyl-butyl}-carbamic acid tert-butyl ester]: the concentration giving a half-maximal response (EC50) in assay [1] (setting [3]) fell in the range of 50 to 500 nM. In addition, in assay [2] (setting [4]), the concentration for half-maximal inhibition (IC50) lay in the range of 1 to 50 nM.
`C=C[C@@H]1C[C@]1(NC(=O)[C@@H]1C[C@@](OC)(c2ccc(-c3ccccc3)cc2)CN1C(=O)[C@@H](NC(=O)OC12CC3CC(CC(C3)C1)C2)C(C)(C)C)C(=O)NS(=O)(=O)C1CC1` [Cmpd 204, {(S)-1-[(2S,4R)-4-Biphenyl-4-yl-2-((S)-(1R,2S)-1-cyclopropanesulfonylaminocarbonyl-2-vinyl-cyclopropylcarbamoyl)-4-methoxy-pyrrolidine-1-carbonyl]-2,2-dimethyl-propyl}-carbamic acid adamantan-1-yl ester]: the EC50 in assay [1] (setting [3]) lay within 1 to 50 nM. Besides, in assay [2] (setting [4]), the IC50 was 1 to 50 nM.
As to `C=C[C@@H]1C[C@]1(NC(=O)[C@@H]1C[C@@](OC)(c2ccc(-c3ccccc3)cc2)CN1C(=O)[C@@H](NC(=O)NC12CC3CC(CC(C3)C1)C2)C(C)(C)C)C(=O)NS(=O)(=O)C1CC1` [Cmpd 205, (2S,4R)-1-[(S)-2-(3-Adamantan-1-yl-ureido)-3,3-dimethyl-butyryl]-4-biphenyl-4-yl-4-methoxy-pyrrolidine-2-carboxylic acid ((1R,2S)-1-cyclopropanesulfonylaminocarbonyl-2-vinyl-cyclopropyl)-amide], in assay [1] (setting [3]), the EC50 is 1 to 50 nM. Further, in assay [2] (setting [4]), the concentration for half-maximal inhibition (IC50) was 1 to 50 nM.
Consider `C=C[C@@H]1C[C@]1(NC(=O)[C@@H]1C[C@@](OC)(c2ccc(-c3ccccc3)cc2)CN1C(=O)[C@@H](NC(=O)NC(C)(C)C)C(C)(C)C)C(=O)NS(=O)(=O)C1CC1` [Cmpd 206, (2S,4R)-4-Biphenyl-4-yl-1-[(S)-2-(3-tert-butyl-ureido)-3,3-dimethyl-butyryl]-4-methoxy-pyrrolidine-2-carboxylic acid ((1R,2S)-1-cyclopropanesulfonylaminocarbonyl-2-vinyl-cyclopropyl)-amide], for which, in assay [1] (setting [3]), the concentration giving a half-maximal response (EC50) fell in the range of 1 to 50 nM. For the same compound, the IC50 in assay [2] (setting [4]) was 1 to 50 nM.
For the compound `C=C[C@@H]1C[C@]1(NC(=O)[C@@H]1C[C@@](OC)(c2ccc(-c3ccccc3)cc2)CN1C(=O)[C@@H](Nc1cccc(OC)c1)C(C)(C)C)C(=O)NS(=O)(=O)C1CC1` [Cmpd 207, (2S,4R)-4-Biphenyl-4-yl-4-methoxy-1-[(S)-2-(3-methoxy-phenylamino)-3,3-dimethyl-butyryl]-pyrrolidine-2-carboxylic acid ((1R,2S)-1-cyclopropanesulfonylaminocarbonyl-2-vinyl-cyclopropyl)-amide], the concentration for a half-maximal effect (EC50) in assay [1] (setting [3]) lay within 1 to 50 nM. Also, the IC50 in assay [2] (setting [4]) lay within 1 to 50 nM.
As for `C=C[C@@H]1C[C@]1(NC(=O)[C@@H]1C[C@@](OC)(c2ccc(-c3ccccc3)cc2)CN1C(=O)[C@H](Nc1cccc(OC)c1)C(C)(C)C)C(=O)NS(=O)(=O)C1CC1` [Cmpd 208, (2S,4R)-4-Biphenyl-4-yl-4-methoxy-1-[(R)-2-(3-methoxy-phenylamino)-3,3-dimethyl-butyryl]-pyrrolidine-2-carboxylic acid ((1R,2S)-1-cyclopropanesulfonylaminocarbonyl-2-vinyl-cyclopropyl)-amide], the EC50 in assay [1] (Huh-7, HCV replicon, numeric cells of Table 2, read-out: HCV Pro Replicon (EC50)) turned out to be 1300 nM. The IC50 in assay [2] (numeric cells of Table 2) worked out at 315 nM.
Regarding `C=C[C@@H]1C[C@]1(NC(=O)[C@@H]1C[C@@](OC)(c2ccc(-c3ccccc3)cc2)CN1C(=O)[C@@H](Nc1ccc(F)c(F)c1)C(C)(C)C)C(=O)NS(=O)(=O)C1CC1` [Cmpd 209, (2S,4R)-4-Biphenyl-4-yl-1-[(S)-2-(3,4-difluoro-phenylamino)-3,3-dimethyl-butyryl]-4-methoxy-pyrrolidine-2-carboxylic acid ((1R,2 S)-1-cyclopropanesulfonylaminocarbonyl-2-vinyl-cyclopropyl)-amide], the EC50 in assay [1] (setting [3]) lay in the range of 1 to 50 nM. In assay [2] (setting [4]), the IC50 fell in the range of 1 to 50 nM.
As for `C=C[C@@H]1C[C@]1(NC(=O)[C@@H]1C[C@@](OC)(c2ccc(-c3ccccc3)cc2)CN1C(=O)[C@H](Nc1ccc(F)c(F)c1)C(C)(C)C)C(=O)NS(=O)(=O)C1CC1` [Cmpd 210, (2S,4R)-4-Biphenyl-4-yl-1-[(R)-2-(3,4-difluoro-phenylamino)-3,3-dimethyl-butyryl]-4-methoxy-pyrrolidine-2-carboxylic acid ((1R,2S)-1-cyclopropanesulfonylaminocarbonyl-2-vinyl-cyclopropyl)-amide], in assay [1] (setting [3]), the EC50 is greater than 500 nM. Besides, in assay [2] (setting [4]), the IC50 is greater than 500 nM.

The values above are taken from patent publication US7888464B2, “Hepatitis C virus inhibitors” (Bristol-Myers Squibb Company, priority 2006, dated 2011).
